Read-outs that look alike come from different tables or passages of the source. Numbered stars: 1 amine (or outer) side, 2 acyl side, 3 side chain; on linkers, the order of the positions; unused ones are H or OH. Bridge positions count the residues as written; N and C are the ends. Square brackets hold non-standard residues; d marks the D form. Peptide text beside a SMILES is read from it. ξ: configuration not given here. X3 = C/C=C(\C)[C@@H](O[*:2])[C@@H](C)[C@@H](O)C/C=C(\C)C(=O)[*:1]; X8 = C/C=C(\C)[C@@H](O[*:2])[C@@H](C)CC/C=C(\C)C(=O)[*:1]; X2 = C/C(=C\CCC[C@@H](O[*:2])C(C)C)C(=O)[*:1]; X7 = C/C(=C\CCC[C@H](O[*:2])C(C)C)C(=O)[*:1]; X5 = C/C(=C\CC[C@H](C)CO[*:2])C(=O)[*:1]; dNMeF = CN[C@H](Cc1ccccc1)C(=O)O; Ile(3ξ) = CCC(C)[C@H](N)C(=O)O; dHica = CC(C)C[C@@H](O)C(=O)O; dNMeA = CN[C@H](C)C(=O)O; Sar = CNCC(=O)O
How the values were obtained:
[1] = tested on: BT-474 human mammary gland ductal carcinoma cells; experiment: Inhibitory response of test compounds against BT-474 cells (Cell Titer-Glo, 72 h); assay type: cell-based
Procedure: (§1) BT-474 human mammary gland ductal carcinoma cells were seeded in a clear polystyrene 96-well microculture plate (Corning® Costar® 96-well flat bottom plate, Cat.#3997) in a total volume of 90 μL/well. After 24 hours of incubation in a humidified incubator at 37° C. with 5% CO2 and 95% air, 10 μL of 10×, serially diluted test agents in growth medium were added to each well (10 pt dose response curve, highest concentration 10 μM of test agent). After 72 hours of culture in a humidified incubator at 37° C., in an atmosphere of 5% CO2 and 95% air, the plated cells and Cell Titer-Glo® (Promega G7571) reagents were brought to room temperature to equilibrate for 30 minutes. 100 μL of Cell Titer-Glo® reagent was added to each well. The plate was shaken for two minutes and then left to equilibrate for ten minutes. The media/Cell Titer-Glo® reagent was transferred to a white polystyrene 96-well microculture plate (Corning® Costar® 96-well flat bottom plate, Cat.#3917) before reading luminescence on a Tecan GENios microplate reader.
(§2) Percent inhibition of cell growth was calculated relative to untreated control wells. The IC50 value for the test agents was determined using Prism 6.05 by curve-fitting of the data using the following four parameter-logistic equation:
(§3) [formula] where Top is the maximal % of control absorbance, Bottom is the minimal % of control absorbance at the highest agent concentration, Y is the % of control absorbance, X is the agent concentration, IC50 is the concentration of agent that inhibits cell growth by 50% compared to the control cells, and n is the slope of the curve.

HCC1954 cells = experiment: Inhibitory response of test compounds against HCC1954 cells (method analogous to BT-474); assay type: cell-based
Procedure: as §1, §2, §3
Inhibitory response of test compounds against HCC1954 cells was determined using a method analogous to that used for BT-474 cells.

Row | SMILES | IC50 ([1]; Homo sapiens) | IC50 (HCC1954 cells; Homo sapiens) | IC50 [1] | IC50 (HCC1954 cells)
1 | C/C=C(\C)[C@H]1OC(=O)[C@@H](C)NC(=O)[C@H]([C@H](C)CC)NC(=O)CN(C)C(=O)[C@@H](Cc2ccccc2)N(C)C(=O)[C@H](C)NC(=O)[C@@H](CC(C)C)OC(=O)/C(C)=C/C[C@H](OC(=O)NCCCOCCOCCOCCCNC(=O)OC(C)(C)C)[C@@H]1C [Compound 106] | < 20 nM | < 20 nM | – | –
2 | C/C=C(\C)[C@H]1OC(=O)[C@@H](C)NC(=O)[C@H]([C@H](C)CC)NC(=O)CN(C)C(=O)[C@@H](Cc2ccccc2)N(C)C(=O)[C@H](C)NC(=O)[C@@H](CC(C)C)OC(=O)/C(C)=C/C[C@H](OC(=O)NCCCOCCOCCOCCCN=[N+]=N)[C@@H]1C [Compound 113] | < 20 nM | < 20 nM | – | –
3 | C/C=C(\C)[C@H]1OC(=O)[C@@H](C)NC(=O)[C@H]([C@H](C)CC)NC(=O)CN(C)C(=O)[C@@H](Cc2ccccc2)N(C)C(=O)[C@H](C)NC(=O)[C@@H](CC(C)C)OC(=O)/C(C)=C/C[C@H](OC(=O)N(C)CCN(C)S(=O)(=O)c2ccc([N+](=O)[O-])cc2)[C@@H]1C [Compound 115] | < 20 nM | < 20 nM | – | –
4 | CCC(C)[C@@H]1NC(=O)CN(C)C(=O)[C@@H](Cc2ccccc2)N(C)C(=O)[C@H](C)NC(=O)[C@@H](CC(C)C)OC(=O)/C(C)=C/CCC[C@@H](C(C)C)OC(=O)[C@@H](C)N(C)C1=O (stereo partly drawn) [Compound 88] ([dHica]A[dNMeF][Sar][Ile(3ξ)][dNMeA]; linker N-C via X7) | 200 to 10000 nM | 200 to 10000 nM | – | –
5 | CCC(C)[C@@H]1NC(=O)CN(C)C(=O)[C@@H](Cc2ccccc2)N(C)C(=O)[C@H](C)NC(=O)[C@@H](CC(C)C)OC(=O)/C(C)=C/CCC[C@H](C(C)C)OC(=O)[C@@H](C)NC1=O (stereo partly drawn) [Compound 87] ([dHica]A[dNMeF][Sar][Ile(3ξ)][dA]; linker N-C via X2) | 200 to 10000 nM | 200 to 10000 nM | – | –
6 | C/C=C(\C)[C@H]1OC(=O)[C@@H](CCCCNC(=O)OC(C)(C)C)NC(=O)[C@H]([C@H](C)CC)NC(=O)CN(C)C(=O)[C@@H](Cc2ccccc2)N(C)C(=O)[C@H](C)NC(=O)[C@@H](CC(C)C)OC(=O)/C(C)=C/C[C@H](CCSC)[C@@H]1C [Compound 82] | < 20 nM | 20 to 200 nM | – | –
7 | C/C=C(\C)[C@H]1OC(=O)[C@@H](C)NC(=O)[C@H]([C@H](C)CC)NC(=O)CN(C)C(=O)[C@@H](Cc2ccc(F)cc2)N(C)C(=O)[C@H](C)NC(=O)[C@@H](CC(C)C)OC(=O)/C(C)=C/C[C@H](OCSC)[C@@H]1C [Compound 101] | < 20 nM | < 20 nM | – | –
8 | C/C=C(\C)[C@H]1OC(=O)[C@@H](C)NC(=O)[C@H]([C@H](C)CC)NC(=O)CN(C)C(=O)[C@@H](Cc2ccc(Cl)cc2)N(C)C(=O)[C@H](CCCCNC(=O)OC(C)(C)C)NC(=O)[C@@H](CC(C)C)OC(=O)/C(C)=C/CC[C@@H]1C [Compound 119] | < 20 nM | < 20 nM | – | –
9 | C/C=C(\C)[C@H]1OC(=O)[C@@H](C)NC(=O)[C@H]([C@H](C)CC)NC(=O)CN(C)C(=O)[C@@H](Cc2ccccc2)N(C)C(=O)[C@H](C)NC(=O)[C@@H](CC(C)C)OC(=O)/C(C)=C/C[C@H](OC(=O)NCCCOCCOCCOCCCNC(=O)c2ccc(C(C)=O)cc2)[C@@H]1C [Compound 116] | < 20 nM | 20 to 200 nM | – | –
10 | C/C=C(\C)[C@H]1OC(=O)[C@@H](C)NC(=O)[C@H]([C@H](C)CC)NC(=O)CN(C)C(=O)[C@@H](Cc2ccccc2)N(C)C(=O)[C@H](C)NC(=O)[C@@H](CC(C)C)OC(=O)/C(C)=C/C[C@H](OC(=O)NCCCCCCNC(=O)CCOCCOCCOCCOCCNC(=O)c2ccc(C=O)cc2)[C@@H]1C [Compound 111] | > 10000 nM | > 10000 nM | – | –
11 | C/C=C(\C)[C@H]1OC(=O)[C@@H](C)NC(=O)[C@H](C(C)CC)NC(=O)CN(C)C(=O)[C@@H](Cc2ccccc2)N(C)C(=O)[C@H](C)NC(=O)[C@@H](CC(C)C)OC(=O)/C(C)=C/C[C@H](CC(=O)NCCCCCCN)[C@@H]1C (stereo partly drawn) [Compound 107] | < 20 nM | 20 to 200 nM | – | –
12 | C/C=C(\C)[C@H]1OC(=O)[C@@H](C)NC(=O)[C@H]([C@H](C)CC)NC(=O)CN(C)C(=O)[C@@H](Cc2ccccc2)N(C)C(=O)[C@H](C)NC(=O)[C@@H](CC(C)C)OC(=O)/C(C)=C/C[C@H](OC(=O)N(C)CCNC)[C@@H]1C [Compound 75] | < 20 nM | < 20 nM | – | –
13 | C/C=C(\C)[C@H]1OC(=O)[C@@H](C)NC(=O)[C@H]([C@H](C)CC)NC(=O)CN(C)C(=O)[C@@H](Cc2ccc(OCc3ccccc3)cc2)N(C)C(=O)[C@H](C)NC(=O)[C@@H](CC(C)C)OC(=O)/C(C)=C/C=C/[C@@H]1C [Compound 98] | < 20 nM | < 20 nM | – | –
14 | CCC(C)[C@@H]1NC(=O)CN(C)C(=O)[C@@H](Cc2ccccc2)N(C)C(=O)[C@H](C)NC(=O)[C@@H](CC(C)C)OC(=O)/C(C)=C/CCC[C@@H](C(C)C)OC(=O)[C@@H](C)NC1=O (stereo partly drawn) [Compound 86] ([dHica]A[dNMeF][Sar][Ile(3ξ)][dA]; linker N-C via X7) | 200 to 10000 nM | 200 to 10000 nM | – | –
15 | C/C=C(\C)[C@H]1OC(=O)[C@@H](C)NC(=O)[C@H](C(C)CC)NC(=O)CN(C)C(=O)[C@@H](Cc2ccccc2)N(C)C(=O)[C@H](C)NC(=O)[C@@H](CC(C)C)OC(=O)/C(C)=C/CC[C@@H]1C (stereo partly drawn) [Compound 90] | < 20 nM | < 20 nM | – | –
16 | CCC(C)[C@@H]1NC(=O)CN(C)C(=O)[C@@H](Cc2ccccc2)N(C)C(=O)[C@H](C)NC(=O)[C@@H](CC(C)C)OC(=O)/C(C)=C/CC[C@H](C)COC(=O)[C@@H](C)NC1=O (stereo partly drawn) [Compound 91] ([dHica]A[dNMeF][Sar][Ile(3ξ)][dA]; linker N-C via X5) | 200 to 10000 nM | 200 to 10000 nM | – | –
17 | C/C=C(\C)[C@H]1OC(=O)[C@@H](C)N(C)C(=O)[C@H](C(C)CC)NC(=O)CN(C)C(=O)[C@@H](Cc2ccccc2)N(C)C(=O)[C@H](C)NC(=O)[C@@H](CC(C)C)OC(=O)/C(C)=C/CC[C@@H]1C (stereo partly drawn) [Compound 100] ([dHica]A[dNMeF][Sar][Ile(3ξ)][dNMeA]; linker N-C via X8) | < 20 nM | 20 to 200 nM | – | –
18 | C/C=C(\C)[C@H]1OC(=O)[C@@H](C)NC(=O)[C@H](C(C)CC)NC(=O)CN(C)C(=O)[C@@H](Cc2ccccc2)N(C)C(=O)[C@H](C)NC(=O)[C@@H](CC(C)C)OC(=O)/C(C)=C/C[C@H](OC(=O)N(C)CCN(C)C(=O)OC(C)(C)C)[C@@H]1C (stereo partly drawn) [Compound 93] | < 20 nM | < 20 nM | – | –
19 | CCC(C)[C@@H]1NC(=O)CN(C)C(=O)[C@@H](Cc2ccccc2)N(C)C(=O)[C@H](C)NC(=O)[C@@H](CC(C)C)OC(=O)/C(C)=C/CCC[C@H](C(C)C)OC(=O)[C@@H](C)N(C)C1=O (stereo partly drawn) [Compound 89] ([dHica]A[dNMeF][Sar][Ile(3ξ)][dNMeA]; linker N-C via X2) | 20 to 200 nM | 200 to 10000 nM | – | –
20 | C/C=C(\C)[C@H]1OC(=O)[C@@H](C)NC(=O)[C@H]([C@H](C)CC)NC(=O)CN(C)C(=O)[C@@H](Cc2ccc(Cl)cc2)N(C)C(=O)[C@H](CCCCN)NC(=O)[C@@H](CC(C)C)OC(=O)/C(C)=C/CC[C@@H]1C [Compound 118] | 200 to 10000 nM | 200 to 10000 nM | – | –
21 | C/C=C(\C)[C@H]1OC(=O)[C@@H](C)NC(=O)[C@H](C(C)CC)NC(=O)CN(C)C(=O)[C@@H](Cc2ccccc2)N(C)C(=O)[C@H](C)NC(=O)[C@@H](Cc2ccccc2)NC(=O)/C(C)=C/C[C@H](O)[C@@H]1C (stereo partly drawn) [Compound 64] ([dF]A[dNMeF][Sar][Ile(3ξ)][dA]; linker N-C via X3) | < 20 nM | 20 to 200 nM | – | –
22 | C/C=C(\C)[C@H]1OC(=O)[C@@H](C)NC(=O)[C@H](C(C)CC)NC(=O)CN(C)C(=O)[C@@H](Cc2ccccc2)N(C)C(=O)[C@H](C)NC(=O)[C@@H](CC(C)C)OC(=O)/C(C)=C/C[C@H](OC(=O)NCCO)[C@@H]1C (stereo partly drawn) [Compound 123] | < 20 nM | < 20 nM | – | –
23 | C/C=C(\C)[C@H]1OC(=O)[C@@H](C)NC(=O)[C@H](C(C)CC)NC(=O)CN(C)C(=O)[C@@H](Cc2ccc(OC)cc2)N(C)C(=O)[C@H](C)NC(=O)[C@@H](CC(C)C)OC(=O)/C(C)=C/C=C/[C@@H]1C (stereo partly drawn) [Compound 95] | < 20 nM | 20 to 200 nM | – | –
24 | C/C=C(\C)[C@H]1OC(=O)[C@@H](C)NC(=O)[C@H](C(C)CC)NC(=O)CN(C)C(=O)[C@@H](Cc2ccc(O)cc2)N(C)C(=O)[C@H](C)NC(=O)[C@@H](CC(C)C)OC(=O)/C(C)=C/C=C/[C@@H]1C (stereo partly drawn) [Compound 99] | 20 to 200 nM | 200 to 10000 nM | – | –
25 | C/C=C(\C)[C@H]1OC(=O)[C@@H](C)NC(=O)[C@H](C(C)CC)NC(=O)CN(C)C(=O)[C@@H](Cc2c[nH]c3ccccc23)N(C)C(=O)[C@H](C)NC(=O)[C@@H](CC(C)C)OC(=O)/C(C)=C/C[C@H](O)[C@@H]1C (stereo partly drawn) [Compound 125] | < 20 nM | 20 to 200 nM | – | –
26 | C/C=C(\C)[C@H]1OC(=O)[C@@H](C)NC(=O)[C@H](C(C)CC)NC(=O)CN(C)C(=O)[C@@H](Cc2ccccc2)N(C)C(=O)[C@H](C)NC(=O)[C@@H](CC(C)C)OC(=O)/C(C)=C/C[C@H](OCSC)[C@@H]1C (stereo partly drawn) [Compound 94] | < 20 nM | < 20 nM | – | –
27 | C/C=C(\C)[C@H]1OC(=O)[C@@H](C)NC(=O)[C@H](C(C)CC)NC(=O)CN(C)C(=O)[C@@H](Cc2ccccc2)N(C)C(=O)[C@H](C)NC(=O)[C@@H](CC(C)C)OC(=O)/C(C)=C/C[C@H](OC(=O)NCCCOCCOCCOCCCNC(=O)CCSSc2ccccn2)[C@@H]1C (stereo partly drawn) [Compound L12] | – | – | 200 to 10000 nM | > 10000 nM
